IC50 data for one compound are collected here from PMC2709563 (Nucleic Acids Research, 2009).

This assay addresses Klenow fragment of DNA polymerase I (Escherichia coli, UniProt P00582). Briefly: competitive fluorescence anisotropy displacement of dtC^OTP. The format is binding. In general terms: In fluorescence polarisation assays a small probe gives low polarisation when free and higher when bound to something large.

Chain of Klenow fragment of DNA polymerase I (P00582 324-928 limits assumed): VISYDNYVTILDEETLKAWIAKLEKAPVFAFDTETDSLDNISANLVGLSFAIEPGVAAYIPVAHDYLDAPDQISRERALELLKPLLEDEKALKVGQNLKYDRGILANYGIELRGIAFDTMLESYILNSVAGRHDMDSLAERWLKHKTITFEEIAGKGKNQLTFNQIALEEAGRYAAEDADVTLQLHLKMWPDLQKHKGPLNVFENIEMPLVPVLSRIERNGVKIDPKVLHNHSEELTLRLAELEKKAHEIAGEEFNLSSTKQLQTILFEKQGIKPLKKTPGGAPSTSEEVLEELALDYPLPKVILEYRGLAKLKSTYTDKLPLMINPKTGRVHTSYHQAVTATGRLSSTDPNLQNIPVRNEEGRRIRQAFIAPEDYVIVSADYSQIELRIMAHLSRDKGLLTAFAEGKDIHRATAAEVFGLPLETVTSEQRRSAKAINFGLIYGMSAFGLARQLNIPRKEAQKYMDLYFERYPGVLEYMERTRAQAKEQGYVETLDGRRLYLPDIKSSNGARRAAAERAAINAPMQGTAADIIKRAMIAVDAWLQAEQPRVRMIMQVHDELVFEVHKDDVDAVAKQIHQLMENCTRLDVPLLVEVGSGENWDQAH

The term IC50 denotes the midpoint of a concentration-inhibition curve. Low readings indicate inhibition by little substance, high ones a need for much substance. With `Nc1ccn([C@H]2C[C@H](O)[C@@H](COP(=O)(O)OP(=O)(O)OP(=O)(O)O)O2)c(=O)n1` [dCTP], the IC50 is 3.4 µM.
